pIC50: −log10 of the molar value.

The assay concerns the target CXCR4 (Homo sapiens, UniProt P61073). The assay is described as follows: fura-2 calcium mobilization in C8161 melanoma cells, antagonism of SDF-1. Type of assay: cell-based.

Chain of CXCR4 (P61073 whole entry): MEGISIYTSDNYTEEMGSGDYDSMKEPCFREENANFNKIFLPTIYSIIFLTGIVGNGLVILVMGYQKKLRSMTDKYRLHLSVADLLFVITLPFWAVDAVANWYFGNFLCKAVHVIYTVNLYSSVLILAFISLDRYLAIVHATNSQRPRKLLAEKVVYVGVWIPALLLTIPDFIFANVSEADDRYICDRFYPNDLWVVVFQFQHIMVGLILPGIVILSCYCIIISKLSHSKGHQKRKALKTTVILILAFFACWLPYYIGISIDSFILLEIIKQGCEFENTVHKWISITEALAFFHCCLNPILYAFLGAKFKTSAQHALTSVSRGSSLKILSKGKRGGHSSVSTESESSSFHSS

As a reminder, the pIC50 is the IC50 on a negative log10 scale, so that one unit is a factor of ten. NUCC-388: the pIC50 was 6.52. Turning to NUCC-54120, the negative logarithm of the IC50 (pIC50) was 6.00. In the case of NUCC-392 it was 6.00.

The record behind these values is paper PMC4960487, “Discovery and characterization of novel small-molecule CXCR4 receptor agonists and antagonists” (Scientific Reports, 2016).
